From a melting point compilation (Tetko et al.)
Non-standard residues stand in square brackets, D forms with d. Residues, ends and D or L forms follow the SMILES beside them. *: point of attachment. Phe(2-Me) = Cc1ccccc1C[CH](N)C(=O)O; Tle = CC(C)(C)[CH](N)C(=O)O; X3 = CC(C)(C)OC(=O)CCC(=O)*; X4 = CCC(N*)C(OC)OC; OtBu = CC(C)(C)O*

CN(CC(O)C(CC1CCCCC1)NC(=O)C(Cc1c[nH]cn1)NC(=O)C(CC(=O)C(C)(C)C)Cc1ccccc1)C(Cc1c[nH]cn1)NC(=O)C(CC(=O)C(C)(C)C)Cc1ccccc1 (stereo unspecified) showed a melting point of 118 °C.
For COc1ccccc1C(=C/C=C/C(=O)O)c1ccccc1OC, the melting point was 196 to 197 °C.
With CC(C)CC1C(=O)OC(Cc2ccc(OCc3ccco3)cc2)C(=O)N(C)C(CC(C)C)C(=O)OC(C)CN(C)C(CC(C)C)C(=O)OC(Cc2ccc(OCc3ccco3)cc2)C(=O)N(C)C(CC(C)C)C(=O)OC(C)CN1C (stereo unspecified) the melting point was 116 to 119 °C.
CC(C)(C)OC(=O)N1CCN(c2ccc(C(=O)O)cc2)CC1 gave a melting point of 195 °C.
With COc1ccc(C(c2ccccc2)C(C)(C(=O)C(C)(C(c2ccccc2)c2ccc(OC)c(OC)c2)N2C(=O)c3ccccc3C2=O)N2C(=O)c3ccccc3C2=O)cc1OC (stereo unspecified) the melting point was 159 to 161 °C.
With O=C(OCCCCCCOc1ccc(-c2ccccc2)cc1)c1cc([N+](=O)[O-])ccc1-c1ccc([N+](=O)[O-])cc1C(=O)OCCCCCCOc1ccc(-c2ccccc2)cc1 the melting point was 121 to 122 °C.
Work on CC(C)[C@H](NC(=O)N(C)Cc1nc2ccccc2[nH]1)C(=O)N[C@@H](Cc1ccccc1)[C@H](O)[C@H](O)[C@H](Cc1ccccc1)NC(=O)[C@@H](NC(=O)N(C)Cc1nc2ccccc2[nH]1)C(C)C yielded a melting point of 107 to 109 °C.
O=C(Nc1ccc(Br)cc1)OC1CCCNC1 (stereo unspecified) gave a melting point of 169 to 170 °C.
For CCOC(=O)Cc1ccc(-c2nc(COc3ccc(COc4nn(-c5ccccc5)cc4/C=C/c4nc(N5CCN(C(=O)OC(C)(C)C)CC5)sc4C)cc3OC)c(C)o2)cc1, the melting point was 112 to 114 °C.
NCCC(N)c1ccccc1C(F)(F)F (stereo unspecified) gave a melting point of 213 to 217 °C.
CC(COC(=O)CCSCCSCCC(=O)OCC(C)(Cc1cc(C(C)(C)C)c(O)c(C(C)(C)C)c1)Cc1cc(C(C)(C)C)c(O)c(C(C)(C)C)c1)(Cc1cc(C(C)(C)C)c(O)c(C(C)(C)C)c1)Cc1cc(C(C)(C)C)c(O)c(C(C)(C)C)c1 showed a melting point of 156 to 161 °C.
CCCCCCCCCCCCCCCCCCCCCCCCCC(C)=CCCC(C)=CCCC(C)=CCCC(C)=CCCC(C)=CCCC(C)=CCCC(C)=CCCC(C)=CCCC(C)=CCOC(=O)C1CCCCC1 gave a melting point of 34 to 35 °C.
In the case of CCCCCCC=CC(OC(=O)c1ccccc1)C(COC1OC(COCC(=O)O)C(OCC(=O)O)C(OC(=O)c2ccccc2)C1OC(=O)c1ccccc1)NC(=O)CCCCCCCCC(=O)OC (stereo unspecified), the melting point is reported as 124 to 125 °C.
Compound COc1ccc(Br)cc1S(=O)(=O)Nc1onc(C)c1Br has a melting point of 192 to 195 °C.
CCOCc1nc2c(N)nc3cc(Br)ccc3c2n1CC1CCN(C(=O)CC(C)C)CC1 gave a melting point of 199 to 200 °C.
Compound CCCSC(=O)c1ccc([Si](CCC(F)(F)C(F)(F)C(F)(F)C(F)(F)C(F)(F)C(F)(F)C(F)(F)C(F)(F)C(F)(F)C(F)(F)F)(CCC(F)(F)C(F)(F)C(F)(F)C(F)(F)C(F)(F)C(F)(F)C(F)(F)C(F)(F)C(F)(F)C(F)(F)F)CCC(F)(F)C(F)(F)C(F)(F)C(F)(F)C(F)(F)C(F)(F)C(F)(F)C(F)(F)C(F)(F)C(F)(F)F)cc1 has a melting point of 69 to 71 °C.
With CCC(NC(=O)C(CC(C)C)NC(=O)C(NC(=O)C(Cc1ccccc1C)NC(=O)C(CCC(=O)OC(C)(C)C)NC(=O)C(CC(=O)OC(C)(C)C)NC(=O)CCC(=O)OC(C)(C)C)C(C)(C)C)C(OC)OC (X3-D(OtBu)E(OtBu)[Phe(2-Me)][Tle]L-X4; configuration not given here) the melting point was 242 to 244 °C.
With CCCCCCCCCCC1(CCCCCCCCCC)c2cc(-c3ccc4c(c3)C(CC)(CC)c3cc(-c5nc6ccccc6s5)ccc3-4)ccc2-c2ccc(-c3ccc4c(c3)C(CC)(CC)c3cc(N(c5ccccc5)c5ccccc5)ccc3-4)cc21 the melting point was 228 to 229 °C.
In the case of CC1(C)CC(Oc2nc(N(C3CC(C)(C)N(O)C(C)(C)C3)C3CC(C)(C)N(O)C(C)(C)C3)nc(N(C3CC(C)(C)N(O)C(C)(C)C3)C3CC(C)(C)N(O)C(C)(C)C3)n2)CC(C)(C)N1O, the melting point is reported as 233 to 236 °C.
In the case of C=CCOc1ccc(C[C@H](NC(=O)OC(C)(C)C)C(=O)N[C@H](C(=O)OC)C(C)C)cc1, the melting point is reported as 74 to 76 °C.
CCCCCCCCCCCCCCCCCCCCCCCCCC(=O)NC(COC1OC(CO)C(O)C(O)C1O)C(O)C(O)CCCCCCCCCCCCCC (stereo unspecified) showed a melting point of 190 °C.
With COC(C)c1nc2c(N)nc3ccccc3c2n1CCOCCNC(=O)NCCCCCCCCNC(=O)NCCOCCn1c(C(C)OC)nc2c(N)nc3ccccc3c21 (stereo unspecified) the melting point was 172 to 177 °C.
Compound CS(=N)(=O)c1ccc(-n2cnnn2)cc1 (stereo unspecified) has a melting point of 180 to 181 °C.
In the case of C=CCOC1OC(CO)C(O)C(OC(=O)CC(CCCCCCCCCCC)OC(=O)CCCCCCCCCCCCC)C1NC(=O)OCC(Cl)(Cl)Cl (stereo unspecified), the melting point is reported as 68 to 70 °C.
CCC1(CC)c2cc(-c3nc4ccccc4s3)ccc2-c2ccc(N(c3ccc4c(c3)C(CC)(CC)c3cc(-c5nc6ccccc6s5)ccc3-4)C3CCCCC3)cc21 gave a melting point of 262 to 264 °C.
Compound CCCCOC(=O)C(C)(C)Oc1ccc(-c2nc(-c3ccc(OC(C)(C)C(=O)OCCCC)cc3O)nc(-c3ccc(OC(C)(C)C(=O)OCCCC)cc3O)n2)c(O)c1 has a melting point of 86 to 91 °C.
With CC(C)(C)OC(=O)NCc1ccc(CNC(=O)N2CCN(C(=O)CN3CCC(=O)N(CC(=O)N4CCN(C(=O)NCc5ccc(CNC(=O)OC(C)(C)C)cc5)CC4)CCC3=O)CC2)cc1 the melting point was 156 to 160 °C.
O=c1cc(-c2ccc(OCCOCCOCCOCCOCCOCCOCCOCCOCCOc3ccc(-c4cc(=O)c5c(O)cc(O)cc5o4)cc3)cc2)oc2cc(O)cc(O)c12 gave a melting point of 135 to 137 °C.
Work on C=COC(=O)CCC yielded a melting point of -80 °C.
For CCCCCCCCCCCCCCCCCCCCCC(=O)OCCN(CCOC(=O)CCCCCCCCCCCCCCCCCCCCC)CC(=O)O, the melting point was 73 to 75 °C.
CCCCCCCCCCCCN1C(=O)NC2(CC(C)(C)N(CC(O)COc3ccc(C(C)(C)c4ccc(OCC(O)CN5C(C)(C)CC6(CC5(C)C)NC(=O)N(CCCCCCCCCCCC)C6=O)cc4)cc3)C(C)(C)C2)C1=O (stereo unspecified) gave a melting point of 159 to 161 °C.
With CCN(CC)CCN=S(=O)(c1ccccc1)c1cccs1 (stereo unspecified) the melting point was 116 °C.
CCOC(=O)[C@@H](CCC(=O)N1c2ccccc2C[C@H]1C(=O)OCC)NC(=O)[C@H](CCCCNSc1ncccc1[N+](=O)[O-])NC(=O)OCc1ccc2c(c1)OCO2 showed a melting point of 130 to 135 °C.
COc1ccc2c(c1)c(CC(=O)NCC(C)(C)SN=O)c(C)n2C(=O)c1ccc(Cl)cc1 showed a melting point of 177 to 178 °C.
For COc1ccc(C(CCCC(C(=O)C(CCCC(c2ccc(OC)c(OC)c2)N2C(=O)c3ccccc3C2=O)N2C(=O)c3ccccc3C2=O)N2C(=O)c3ccccc3C2=O)N2C(=O)c3ccccc3C2=O)cc1OC (stereo unspecified), the melting point was 195 °C.
Work on C=CC(=O)OCCCCCCCCCCCOc1ccc(-c2nc(-c3ccccc3)nc(-c3ccc(OCCCCCCCCCCCOC(=O)C=C)cc3O)n2)c(O)c1 yielded a melting point of 93.3 °C.
Work on CCCCCCCCCCCCCCCCCCN(CCCCCCCCCCCCCCCCCC)C(=O)c1cc(NS(=O)(=O)c2cnc(NN)c(Cl)c2)c2ccccc2c1O yielded a melting point of 75 to 77 °C.
NC(=O)c1c(I)c(C(=O)N(CC(O)CO)CC(O)CO)c(I)c(N(CC(O)CO)C(=O)CO)c1I (stereo unspecified) showed a melting point of 195 to 200 °C.
CCCCCCCCCCCCSc1c(SCCCCCCCCCCCC)c(SCCCCCCCCCCCC)c(SCCCCCCCCCCCC)c(SCCCCCCCCCCCC)c1SCCCCCCCCCCCC gave a melting point of 44 to 45 °C.
For CC(C)CC(NC(=O)OCc1ccccc1)C(=O)NC(C)C(=O)NC(CCCN(C(=N)NC(=O)OCc1ccccc1)C(=O)OCc1ccccc1)C(=O)Oc1cccc2ccccc12 (stereo unspecified), the melting point was 179 to 183 °C.
Work on CCO[Si](CCCCOc1ccc(S(=O)(=O)c2ccc(OCCCC[Si](OCC)(OCC)OCC)cc2Cc2ccc(C(F)(F)F)cc2)c(Cc2ccc(C(F)(F)F)cc2)c1)(OCC)OCC yielded a melting point of 124 to 128 °C.
For CCCCCCCCCCCCCCCCCC[Si](C)(C)O[C@@H]1c2cc(Br)ccc2-c2ccc(Br)cc2[C@H]1O[Si](C)(C)CCCCCCCCCCCCCCCCCC (relative stereo), the melting point was 51.5 to 52.5 °C.
For CC(C)=CCC/C(C)=C/CC/C(C)=C/CC/C=C(\C)CC/C=C(\C)CCC=C(C)C, the melting point was -5 °C.
For CC(=O)OCCn1c([N+](=O)[O-])cnc1CO, the melting point was 138 to 145 °C.
In the case of CCN(C(=O)OC(C)(C)C)C(=NC(=O)OC(C)(C)C)N1CCN(C(=O)[C@@H]2CCCN2S(=O)(=O)c2ccc(Cl)c(COc3cccc4ccc(C)nc34)c2Cl)CC1, the melting point is reported as 95 °C.
In the case of CC(=O)OCC1OC(OC2C(COC(C)=O)OC(OC3C(COC(C)=O)OC(OCCBr)C(OC(C)=O)C3OC(C)=O)C(OC(C)=O)C2OC(C)=O)C(OC(C)=O)C(OC(C)=O)C1OC(C)=O (stereo unspecified), the melting point is reported as 179 to 181 °C.
For CCC(C)C1NC(=O)C(CC(C)C)NC(=O)C2CCCN2C(=O)C(C(C)C)NC(=O)C(Cc2ccc(O)cc2)NC(=O)C2CCCN2C(=O)C2CCCN2C(=O)C(C(C)CC)NC1=O (stereo unspecified) (cyclo(IIPPYVPL); configuration not given here), the melting point was 180 to 182 °C.
C=C(C)[C@@H]1CC[C@]2(C(=O)N[C@H]3C[C@@H](C(=O)N4CCCCC4)C3(C)C)CC[C@]3(C)[C@H](CC[C@@H]4[C@@]5(C)CC[C@H](OC(=O)[C@@H]6C[C@H](C(=O)O)C6(C)C)C(C)(C)[C@@H]5CC[C@]43C)[C@@H]12 gave a melting point of 258 to 269 °C.
With CCCCN(c1nc(N(CCCC)C2CC(C)(C)N(OC3CCCCC3)C(C)(C)C2)nc(N(CCCC)C2CC(C)(C)N(OC3CCCCC3)C(C)(C)C2)n1)C1CC(C)(C)N(OC2CCCCC2)C(C)(C)C1 the melting point was 189 to 194 °C.
O=C(Cl)C(F)(F)F showed a melting point of -146 °C.
For Nc1cc(C(F)(F)C(F)(F)OC(F)(F)C(F)(F)OC(F)(F)C(F)(F)OC(F)(F)C(F)(F)C(F)(F)C(F)(F)C(F)(F)OC(F)(F)C(F)(F)c2ccc(O)c(N)c2)ccc1O, the melting point was 92 to 95 °C.
CCCCCCCCCCN(CCCCN(CCCN(CCCCCCCCCC)C(=O)c1cccc(O)c1O)C(=O)c1cccc(O)c1O)C(=O)c1cccc(O)c1O showed a melting point of 63 to 65 °C.
CCC(O)C=CC=CC=CC(=O)OCC1OC(OC2C(CO)OC3(OCc4cc(O)cc(O)c43)C(O)C2OC(=O)C=CC=CCC(O)C(C)=CC=CCCC(C)CC)C(O)C(O)C1O (stereo unspecified) gave a melting point of 193 to 197 °C.
With FC(F)OC(Cl)C(F)(F)F (stereo unspecified) the melting point was -108 °C.
For CSC(=NS(=O)(=O)c1ccccc1)c1ccccc1, the melting point was 150 to 155 °C.
For O=C(O)Cc1cccc(-c2cc(CCCCc3ccc(OC4OC(CO)C(O)C(O)C4O)c(-c4cccc(CC(=O)O)c4)c3)ccc2OC2OC(CO)C(O)C(O)C2O)c1 (stereo unspecified), the melting point was 195 to 197 °C.
